Where a name gives a salt, the structure may show the parent alone.
Assay: Example 1: multiple-dose randomized 3-way crossover PK study of two IV tramadol regimens vs 100 mg oral q6h
Conditions: for theoretical accumulation factor: 1/[1-exp(−ln 2*tau/T1/2)], T1/2 approximately […]
[1] = human, plasma, iv, 50 mg, plasma concentration, Mean, 50 mg IV Dose (h 0, 2, 4, then q4h to h 44), Time […]

Method: A fitted curve was obtained because the second oral peak was not measured in the study. For the modeling portion of the analysis, a validated Phoenix® WinNonlin® program version 6.4 (Certara) was used for PK analysis, simulation, graphics, tables and statistical calculations. […] For purposes of nonlinear regression, the data were weighted as 1/observed. Predicted concentration-time data were calculated based on the individual fitted PK parameters.

For `COc1cccc([C@]2(O)CCCC[C@H]2CN(C)C)c1` (racemic) [Tramadol, (±)cis-2-[(dimethylamino)methyl]-1-(3-methoxyphenyl) cyclohexanol hydrochloride], the “predicted exposure over 12 h at steady state” value (“predicted exposure over 12 h” for short) (50 mg IV q4h, 3 x AUCtau n) was 6684 ng·h/mL, the “RAC(trough)” value (50 mg IV regimen (h 0, 2, 4, then q4h to h 44), mean) was 2.1937 and the Css (50 mg IV regimen (h 0, 2, 4, then q4h to h 44), plasma, mean) was 557 ng/mL. The “predicted exposure over 12 h” value (75 mg IV q6h, 2 x AUCtau n) was 6072 ng·h/mL, the “RAC(trough)” value (75 mg IV regimen (h 0, 3, 6, then q6h to h 42), mean) was 1.5026 and the Css (75 mg IV regimen (h 0, 3, 6, then q6h to h 42), plasma, mean) was 506 ng/mL. The AUC24-48 (75 mg IV regimen (h 0, 3, 6, then q6h to h 42), plasma, mean, hydrochloride) was 9402 ng·h/mL, the “predicted exposure over 12 h” value (100 mg PO q6h, 2 x AUCtau n) was 6950 ng·h/mL and the “RAC(trough)” value (100 mg oral q6h to h 42, mean) was 2.5580. The Css (100 mg oral q6h to h 42, plasma, mean) was 579 ng/mL, the theoretical accumulation factor (4-h dosing interval) was 2.42 and the theoretical accumulation factor (6-h dosing interval) was 1.82. The AUC(0-t) (human, plasma, iv, 50 mg, AUC0-24, 50 mg IV regimen (h 0, 2, 4, then q4h to h 44), plasma, mean) was 9520 ng·h/mL, the AUC(0-t) (human, plasma, iv, 50 mg, AUC0-48, 50 mg IV regimen (h 0, 2, 4, then q4h to h 44), plasma, mean) was 20500 ng·h/mL and the AUC (human, plasma, iv, 50 mg, AUC24-48, 50 mg IV regimen (h 0, 2, 4, then q4h to h 44), plasma, mean) was 11000 ng·h/mL. For the same compound, the AUC (human, plasma, iv, 50 mg, AUCtau 1, 50 mg IV regimen (h 0, 2, 4, then q4h to h 44), first dosing interval, mean) was 624 ng·h/mL, the AUC (human, plasma, iv, 50 mg, AUCtau n, 50 mg IV regimen (h 0, 2, 4, then q4h to h 44), last dosing interval, mean) was 2230 ng·h/mL and the concentration at 2 h (human, plasma, iv, 50 mg, C2, 50 mg IV regimen (h 0, 2, 4, then q4h to h 44), plasma, mean) was 203 ng/mL. For the same compound, the concentration at 48 h (human, plasma, iv, 50 mg, C48 (T48), 50 mg IV regimen (h 0, 2, 4, then q4h to h 44), plasma, mean) was 448 ng/mL, the concentration at 1 h (human, plasma, iv, 50 mg, C1 h, 50 mg IV regimen (h 0, 2, 4, then q4h to h 44), plasma, mean) was 243 ng/mL and the Cmax (human, plasma, iv, 50 mg, Cmax(0-2), 50 mg IV regimen (h 0, 2, 4, then q4h to h 44), first dose, plasma, mean) was 294 ng/mL. It also gave a Cmax (human, plasma, iv, 50 mg, Cmax(2-4), 50 mg IV regimen (h 0, 2, 4, then q4h to h 44), plasma, mean) of 479 ng/mL, a Cmax (human, plasma, iv, 50 mg, Cmax(44-48), 50 mg IV regimen (h 0, 2, 4, then q4h to h 44), steady-state, plasma, mean) of 711 ng/mL and a Cmax (human, plasma, iv, 50 mg, Cmax, 50 mg IV regimen (h 0, 2, 4, then q4h to h 44), plasma, mean) of 736 ng/mL. The Tmax (human, plasma, iv, 50 mg, Tmax(0-2), 50 mg IV regimen (h 0, 2, 4, then q4h to h 44), plasma, mean) was 0.54 h, the Tmax (human, plasma, iv, 50 mg, Tmax(2-4), 50 mg IV regimen (h 0, 2, 4, then q4h to h 44), plasma, mean) was 2.36 h and the Tmax (human, plasma, iv, 50 mg, Tmax(44-48), 50 mg IV regimen (h 0, 2, 4, then q4h to h 44), plasma, mean) was 44.3 h. It also gave a Tmax (human, plasma, iv, 50 mg, Tmax, 50 mg IV regimen (h 0, 2, 4, then q4h to h 44), plasma, mean) of 30 h, a concentration at 0 h (human, plasma, iv, 50 mg, plasma concentration, Mean, 50 mg IV Dose (h 0, 2, 4, then q4h to h 44), Time 0.00 hr) of 0.726 ng/mL and a concentration at 0.25 h (human, plasma, iv, 50 mg, plasma concentration, Mean, 50 mg IV Dose (h 0, 2, 4, then q4h to h 44), Time 0.250 hr) of 253 ng/mL. It also gave a concentration at 0.5 h (human, plasma, iv, 50 mg, plasma concentration, Mean, 50 mg IV Dose (h 0, 2, 4, then q4h to h 44), Time 0.500 hr) of 261 ng/mL, a concentration at 0.75 h (human, plasma, iv, 50 mg, plasma concentration, Mean, 50 mg IV Dose (h 0, 2, 4, then q4h to h 44), Time 0.750 hr) of 243 ng/mL and a concentration at 1 h (human, plasma, iv, 50 mg, plasma concentration, Mean, 50 mg IV Dose (h 0, 2, 4, then q4h to h 44), Time 1.00 hr) of 231 ng/mL. The concentration at 2 h (human, plasma, iv, 50 mg, plasma concentration, Mean, 50 mg IV Dose (h 0, 2, 4, then q4h to h 44), Time 2.00 hr) was 188 ng/mL, the concentration at 2.5 h (human, plasma, iv, 50 mg, plasma concentration, Mean, 50 mg IV Dose (h 0, 2, 4, then q4h to h 44), Time 2.50 hr) was 442 ng/mL and the concentration at 4 h (human, plasma, iv, 50 mg, plasma concentration, Mean, 50 mg IV Dose (h 0, 2, 4, then q4h to h 44), Time 4.00 hr) was 335 ng/mL. It also gave a concentration at 4.25 h (human, plasma, iv, 50 mg, plasma concentration, Mean, 50 mg IV Dose (h 0, 2, 4, then q4h to h 44), Time 4.25 hr) of 662 ng/mL, a concentration at 4.5 h (human, plasma, iv, 50 mg, plasma concentration, Mean, 50 mg IV Dose (h 0, 2, 4, then q4h to h 44), Time 4.50 hr) of 592 ng/mL and a concentration at 5 h (human, plasma, iv, 50 mg, plasma concentration, Mean, 50 mg IV Dose (h 0, 2, 4, then q4h to h 44), Time 5.00 hr) of 527 ng/mL. The concentration at 6 h (human, plasma, iv, 50 mg, plasma concentration, Mean, 50 mg IV Dose (h 0, 2, 4, then q4h to h 44), Time 6.00 hr) was 433 ng/mL, the concentration at 8 h (human, plasma, iv, 50 mg, plasma concentration, Mean, 50 mg IV Dose (h 0, 2, 4, then q4h to h 44), Time 8.00 hr) was 346 ng/mL and the concentration at 12 h (human, plasma, iv, 50 mg, plasma concentration, Mean, 50 mg IV Dose (h 0, 2, 4, then q4h to h 44), Time 12.0 hr) was 353 ng/mL. It also gave a concentration at 20 h (human, plasma, iv, 50 mg, plasma concentration, Mean, 50 mg IV Dose (h 0, 2, 4, then q4h to h 44), Time 20.0 hr) of 419 ng/mL, a concentration at 32 h (human, plasma, iv, 50 mg, plasma concentration, Mean, 50 mg IV Dose (h 0, 2, 4, then q4h to h 44), Time 32.0 hr) of 422 ng/mL and a concentration at 40 h (human, plasma, iv, 50 mg, plasma concentration, Mean, 50 mg IV Dose (h 0, 2, 4, then q4h to h 44), Time 40.0 hr) of 424 ng/mL. It also gave a concentration at 44 h (human, plasma, iv, 50 mg, plasma concentration, Mean, 50 mg IV Dose (h 0, 2, 4, then q4h to h 44), Time 44.0 hr) of 424 ng/mL, a concentration at 44.3 h (human, plasma, iv, 50 mg, plasma concentration, Mean, 50 mg IV Dose (h 0, 2, 4, then q4h to h 44), Time 44.3 hr) of 697 ng/mL and a concentration at 44.5 h (human, plasma, iv, 50 mg, plasma concentration, Mean, 50 mg IV Dose (h 0, 2, 4, then q4h to h 44), Time 44.5 hr) of 655 ng/mL. It also gave a concentration at 44.8 h (human, plasma, iv, 50 mg, plasma concentration, Mean, 50 mg IV Dose (h 0, 2, 4, then q4h to h 44), Time 44.8 hr) of 645 ng/mL, a concentration at 45 h (human, plasma, iv, 50 mg, plasma concentration, Mean, 50 mg IV Dose (h 0, 2, 4, then q4h to h 44), Time 45.0 hr) of 610 ng/mL and a concentration at 45.5 h (human, plasma, iv, 50 mg, plasma concentration, Mean, 50 mg IV Dose (h 0, 2, 4, then q4h to h 44), Time 45.5 hr) of 553 ng/mL. It also gave a concentration at 46 h (human, plasma, iv, 50 mg, plasma concentration, Mean, 50 mg IV Dose (h 0, 2, 4, then q4h to h 44), Time 46.0 hr) of 528 ng/mL, a concentration at 47 h (human, plasma, iv, 50 mg, plasma concentration, Mean, 50 mg IV Dose (h 0, 2, 4, then q4h to h 44), Time 47.0 hr) of 490 ng/mL and a concentration at 16 h [1] of 388 ng/mL. The concentration at 24 h [1] was 413 ng/mL, the concentration at 48 h [1] was 434 ng/mL and the AUC(0-t) (human, plasma, iv, 75 mg, AUC0-24, 75 mg IV regimen (h 0, 3, 6, then q6h to h 42), plasma, mean) was 9930 ng·h/mL. For the same compound, the AUC(0-t) (human, plasma, iv, 75 mg, AUC0-48, 75 mg IV regimen (h 0, 3, 6, then q6h to h 42), plasma, mean) was 19300 ng·h/mL, the AUC (human, plasma, iv, 75 mg, AUC24-48, 75 mg IV regimen (h 0, 3, 6, then q6h to h 42), plasma, mean) was 9930 ng·h/mL and the AUC (human, plasma, iv, 75 mg, AUCtau 1, 75 mg IV regimen (h 0, 3, 6, then q6h to h 42), first dosing interval, mean) was 1250 ng·h/mL. The AUC (human, plasma, iv, 75 mg, AUCtau n, 75 mg IV regimen (h 0, 3, 6, then q6h to h 42), last dosing interval, mean) was 3040 ng·h/mL, the concentration at 3 h (human, plasma, iv, 75 mg, C3, 75 mg IV regimen (h 0, 3, 6, then q6h to h 42), plasma, mean) was 237 ng/mL and the concentration at 48 h (human, plasma, iv, 75 mg, C48 (T48), 75 mg IV regimen (h 0, 3, 6, then q6h to h 42), plasma, mean) was 354 ng/mL. For the same compound, the concentration at 1 h (human, plasma, iv, 75 mg, C1 h, 75 mg IV regimen (h 0, 3, 6, then q6h to h 42), plasma, mean) was 361 ng/mL, the Cmax (human, plasma, iv, 75 mg, Cmax(0-3), 75 mg IV regimen (h 0, 3, 6, then q6h to h 42), first dose, plasma, mean) was 484 ng/mL and the Cmax (human, plasma, iv, 75 mg, Cmax(3-6), 75 mg IV regimen (h 0, 3, 6, then q6h to h 42), plasma, mean) was 756 ng/mL.

From US10537521B2 (priority 2016, dated 2020)
